Source: US9422267B2, “Fused pyrimidine compounds and use thereof” (Medivation Technologies, Inc., priority 2012, dated 2016)
Where two headings read alike, the source gives them in different places. Each block holds one compound with its values, some of them ahead of it.

Key:
[1] = biological target: T1, IR (Homo sapiens, UniProt P06213); assay: In vitro IR enzymatic assay (ADP-Glo kinase assay); format: biochemical; details: activated IR; read-out: IC50
T1 construct: purchased Millipore 14-803
Method: (§1) IC50 values of the compounds of the invention against IGF-1R and IR were measured in vitro using an ADP-Glo kinase assay Kit (Promega). […] Kinase reactions in both assays were conducted at 30° C. for 20 min with increasing concentrations of compounds of the invention.

[2] = tested on: HT-29; assay: Cell Titer-Glo cell viability: HT-29; format: cell-based; details: Homo sapiens, HT-29, 72 h
Method: (§2) This assay quantitates the ATP present in order to determine the number of viable cells in culture. Briefly, the compounds were incubated with the cells for 72 h, followed by cell lysis. The resulting luminescent signal is proportional to the amount of ATP present and, therefore, directly proportional to the number of cells present in culture.
(§3) Compound nos. […] These cell lines are derived from human lung carcinoma, colon adenocarcinoma, colon adenocarcinoma, colon carcinoma, acute promyelocytic leukemia, colon adenocarcinoma, colon adenocarcinoma (from metastatic site lymph node), respectively.
(§4) Compounds 2b, 5, 6b and 10a were tested along with derivatives in viability assays as described above by Caliper LifeSciences Systems (Hanover, Md.), in A549, HCT-15, HCT-116, MCF-7, MDA-MB-231, OVCAR3, T47D, COLO205, HT-29, BT-20, HCC1187, HL-60, MDA-MB-175, SW-620, and UACC812 cells.

[3] = tested on: A549; assay: Cell Titer-Glo cell viability: A549; format: cell-based; details: Homo sapiens, A549, 72 h, A549, non-small lung carcinoma
Method: as §2, §3, §4

[4] = tested on: COLO 205; assay: Cell Titer-Glo cell viability: COLO 205; format: cell-based; details: Homo sapiens, COLO 205, 72 h
Method: as §2, §3, §4

[5] = tested on: HCT-116; assay: Cell Titer-Glo cell viability: HCT-116; format: cell-based; details: Homo sapiens, HCT116, colon carcinoma
Method: as §2, §3, §4

[6] = tested on: SW-620; assay: Cell Titer-Glo cell viability: SW-620; format: cell-based; details: Homo sapiens, SW-620, 72 h, SW-620, metastatic colorectal cancer
Method: as §2, §3, §4

[7] = tested on: BT-20; assay: Cell Titer-Glo cell viability: BT-20; format: cell-based; details: Homo sapiens
Method: (§5) Compound nos. […] This panel of cell lines includes an ER− breast carcinoma, primary breast ductal carcinoma, prostate adenocarcinoma, mammary adenocarcinoma, mammary ductal carcinoma, mammary ductal carcinoma, ovary adenocarcinoma, ER+ breast carcinoma, ER-HER2+ mammary ductal carcinoma and an ER+ mammary ductal carcinoma, respectively.
as §2, §4

[8] = tested on: LNCaP; assay: Cell Titer-Glo cell viability: LNCaP; format: cell-based; details: Homo sapiens
Method: as §5, §2

[9] = tested on: MCF-7; assay: Cell Titer-Glo cell viability: MCF-7; format: cell-based; details: Homo sapiens, MCF7, breast cancer
Method: as §5, §2, §4

[10] = tested on: MDA MB 175; assay: Cell Titer-Glo cell viability: MDA MB 175; format: cell-based
Method: as §5, §2, §4
The inhibitory effects of Compound 8a were tested in two cell lines.

[11] = tested on: MDA MB 231; assay: Cell Titer-Glo cell viability: MDA MB 231; format: cell-based; details: Homo sapiens, MDAMB231, breast cancer
Method: as §5, §2, §4

[12] = tested on: OVCAR-3; assay: Cell Titer-Glo cell viability: OVCAR-3; format: cell-based; details: Homo sapiens, OVCAR3, ovarian cancer
Method: as §5, §2, §4

[13] = biological target: IGF1R (Homo sapiens, UniProt P08069); assay: In vitro IGF-1R enzymatic assay (ADP-Glo kinase assay); format: biochemical; design: purchased Millipore 14-802
Method: as §1

[14] = biological target: T2, AXL (Homo sapiens, UniProt P30530); assay: Caliper kinase profiling: AXL
T2 sequence (P30530 26-894): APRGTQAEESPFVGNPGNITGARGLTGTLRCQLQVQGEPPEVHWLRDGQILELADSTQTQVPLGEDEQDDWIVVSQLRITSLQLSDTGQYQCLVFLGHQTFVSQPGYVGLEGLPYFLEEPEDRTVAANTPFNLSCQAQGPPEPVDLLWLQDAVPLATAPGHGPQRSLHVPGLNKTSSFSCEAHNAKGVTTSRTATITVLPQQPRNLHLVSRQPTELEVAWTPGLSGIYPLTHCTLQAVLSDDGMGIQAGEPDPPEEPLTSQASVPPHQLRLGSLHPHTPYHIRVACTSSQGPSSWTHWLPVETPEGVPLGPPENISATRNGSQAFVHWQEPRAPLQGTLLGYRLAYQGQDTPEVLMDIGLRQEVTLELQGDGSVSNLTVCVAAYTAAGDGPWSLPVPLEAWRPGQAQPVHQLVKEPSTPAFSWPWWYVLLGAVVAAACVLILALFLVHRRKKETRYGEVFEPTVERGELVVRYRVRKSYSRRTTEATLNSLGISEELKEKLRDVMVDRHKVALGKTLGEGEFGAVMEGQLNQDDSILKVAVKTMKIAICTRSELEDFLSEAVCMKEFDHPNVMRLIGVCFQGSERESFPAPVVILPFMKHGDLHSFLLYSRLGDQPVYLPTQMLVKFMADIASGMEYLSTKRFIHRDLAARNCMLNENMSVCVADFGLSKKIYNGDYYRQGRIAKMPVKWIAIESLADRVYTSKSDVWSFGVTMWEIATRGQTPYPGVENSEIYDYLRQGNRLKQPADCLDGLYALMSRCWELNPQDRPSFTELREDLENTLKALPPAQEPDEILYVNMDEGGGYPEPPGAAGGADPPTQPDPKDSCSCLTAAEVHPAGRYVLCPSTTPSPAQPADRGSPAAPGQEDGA

[15] = biological target: FAK2(PTK2b) (Homo sapiens, UniProt Q14289); assay: Caliper kinase assay: FAK2(PTK2b)
Method: (§6) The compound was tested at concentrations of 1.0×10^−8 and 1.0×10^−9 M in the RapidKinase192™ panel in duplicate. […] The screening was performed using the Caliper EZReader2, a 4-sipper LabChip, and ProfilerPro Kinase Selectivity Assay Kits 1 and 2. The assay measures the conversion of a fluorescent peptide substrate to a phosphorylated product. Briefly, the reaction mixture was introduced through a capillary sipper onto the microfluidic chip, where the substrate and product were electrophoretically separated and detected by laser-induced fluorescence. The time-dependent fluorescence signal indicates the extent of the reaction.
(§7) The kinases tested were AurA, AurB, AurC, AXL, FAK2, IGF1R, InsR, Mer, MET, TrkB and TrkC.
(§8) The assays were conducted using the Caliper LabChip 3000 and a 12-sipper LabChip as described above.

[16] = biological target: NTRK2 (TRKB) (Homo sapiens, UniProt Q16620); assay: Caliper kinase profiling: NTRK2 (TRKB)
[17] = biological target: TRKC (NTRK3) (Homo sapiens, UniProt Q16288); assay: Caliper kinase profiling: TRKC (NTRK3)
Method: as §6, §7, §8

[18] = 72 h incubation, Cell Titer-Glo
[19] = activated IGF-1R, read-out: IC50
[20] = read-out: Average % Inh @ 10 nM

Chain of IGF1R (P08069 31-1367): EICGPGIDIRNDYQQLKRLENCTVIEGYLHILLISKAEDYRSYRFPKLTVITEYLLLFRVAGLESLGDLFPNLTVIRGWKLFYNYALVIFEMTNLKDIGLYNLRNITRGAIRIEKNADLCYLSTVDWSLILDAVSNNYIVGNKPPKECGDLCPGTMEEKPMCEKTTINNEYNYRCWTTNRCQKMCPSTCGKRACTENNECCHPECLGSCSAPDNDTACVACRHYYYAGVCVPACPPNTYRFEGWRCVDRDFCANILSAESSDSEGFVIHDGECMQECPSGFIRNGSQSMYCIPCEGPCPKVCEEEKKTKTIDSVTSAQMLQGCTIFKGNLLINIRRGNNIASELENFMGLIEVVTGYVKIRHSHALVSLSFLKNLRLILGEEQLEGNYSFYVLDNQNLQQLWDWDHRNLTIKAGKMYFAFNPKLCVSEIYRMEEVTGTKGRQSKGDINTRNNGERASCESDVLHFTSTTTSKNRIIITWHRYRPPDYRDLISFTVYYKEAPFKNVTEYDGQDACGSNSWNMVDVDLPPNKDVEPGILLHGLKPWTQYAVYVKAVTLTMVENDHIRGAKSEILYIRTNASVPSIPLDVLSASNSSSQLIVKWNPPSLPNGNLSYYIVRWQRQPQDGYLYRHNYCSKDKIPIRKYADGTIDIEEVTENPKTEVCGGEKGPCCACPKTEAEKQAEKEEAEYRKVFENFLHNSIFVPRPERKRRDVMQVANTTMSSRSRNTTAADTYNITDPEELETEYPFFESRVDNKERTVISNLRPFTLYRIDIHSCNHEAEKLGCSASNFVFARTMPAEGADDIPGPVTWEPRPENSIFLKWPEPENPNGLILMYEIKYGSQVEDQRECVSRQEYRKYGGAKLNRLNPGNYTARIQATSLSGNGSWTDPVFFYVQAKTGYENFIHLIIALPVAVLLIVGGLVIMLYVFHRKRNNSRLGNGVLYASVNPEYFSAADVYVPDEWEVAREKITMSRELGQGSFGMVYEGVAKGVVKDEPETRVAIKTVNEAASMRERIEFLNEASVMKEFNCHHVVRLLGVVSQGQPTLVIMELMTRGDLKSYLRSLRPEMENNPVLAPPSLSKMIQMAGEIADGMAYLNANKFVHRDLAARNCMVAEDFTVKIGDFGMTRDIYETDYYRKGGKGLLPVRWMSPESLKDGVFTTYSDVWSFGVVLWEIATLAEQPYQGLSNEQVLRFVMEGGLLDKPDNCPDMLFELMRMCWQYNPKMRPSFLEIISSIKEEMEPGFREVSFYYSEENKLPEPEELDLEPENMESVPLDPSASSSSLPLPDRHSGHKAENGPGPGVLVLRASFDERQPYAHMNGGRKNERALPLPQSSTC
Chain of TRKC (NTRK3) (Q16288 32-839): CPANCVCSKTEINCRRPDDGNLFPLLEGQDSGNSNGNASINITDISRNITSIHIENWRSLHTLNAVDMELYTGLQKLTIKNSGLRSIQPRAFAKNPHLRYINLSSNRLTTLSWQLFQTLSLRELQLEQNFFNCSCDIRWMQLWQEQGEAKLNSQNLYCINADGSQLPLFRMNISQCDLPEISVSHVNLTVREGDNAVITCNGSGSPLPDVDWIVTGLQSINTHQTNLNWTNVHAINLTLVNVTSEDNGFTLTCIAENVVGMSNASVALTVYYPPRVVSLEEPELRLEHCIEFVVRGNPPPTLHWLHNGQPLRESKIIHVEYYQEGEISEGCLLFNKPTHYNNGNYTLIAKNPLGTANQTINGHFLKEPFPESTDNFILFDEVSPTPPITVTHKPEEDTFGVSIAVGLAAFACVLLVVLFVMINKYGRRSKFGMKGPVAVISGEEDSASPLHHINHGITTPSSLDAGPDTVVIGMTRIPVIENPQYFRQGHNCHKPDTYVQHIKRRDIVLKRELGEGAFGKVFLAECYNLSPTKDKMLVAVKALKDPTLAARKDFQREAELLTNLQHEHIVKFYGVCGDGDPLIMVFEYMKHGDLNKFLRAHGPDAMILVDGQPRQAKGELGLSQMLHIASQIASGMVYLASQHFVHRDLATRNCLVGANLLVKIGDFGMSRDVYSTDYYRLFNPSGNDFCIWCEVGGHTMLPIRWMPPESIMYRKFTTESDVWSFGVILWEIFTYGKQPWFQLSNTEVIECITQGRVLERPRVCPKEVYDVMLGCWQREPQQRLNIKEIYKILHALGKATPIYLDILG
Chain of NTRK2 (TRKB) (Q16620 32-822): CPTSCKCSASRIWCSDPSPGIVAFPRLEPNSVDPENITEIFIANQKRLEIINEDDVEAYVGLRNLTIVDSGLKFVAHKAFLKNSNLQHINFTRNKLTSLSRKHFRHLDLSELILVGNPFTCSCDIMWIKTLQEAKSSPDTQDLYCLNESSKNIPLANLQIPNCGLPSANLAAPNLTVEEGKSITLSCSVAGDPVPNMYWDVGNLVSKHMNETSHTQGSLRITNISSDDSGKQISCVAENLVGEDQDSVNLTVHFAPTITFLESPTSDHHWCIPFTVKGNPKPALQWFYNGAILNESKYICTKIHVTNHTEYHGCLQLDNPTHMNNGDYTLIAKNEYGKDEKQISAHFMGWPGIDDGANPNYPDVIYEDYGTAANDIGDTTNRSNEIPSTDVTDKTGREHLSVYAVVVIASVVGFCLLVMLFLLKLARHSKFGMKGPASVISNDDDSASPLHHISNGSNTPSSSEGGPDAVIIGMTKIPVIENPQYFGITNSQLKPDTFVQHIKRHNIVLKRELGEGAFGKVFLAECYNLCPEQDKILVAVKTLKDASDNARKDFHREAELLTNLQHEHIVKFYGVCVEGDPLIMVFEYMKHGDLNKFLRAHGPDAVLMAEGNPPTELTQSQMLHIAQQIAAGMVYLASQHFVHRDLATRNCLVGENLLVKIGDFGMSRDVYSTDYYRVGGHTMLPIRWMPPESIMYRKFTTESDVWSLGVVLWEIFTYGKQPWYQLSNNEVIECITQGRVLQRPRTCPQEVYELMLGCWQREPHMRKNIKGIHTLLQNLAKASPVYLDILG
Chain of FAK2(PTK2b) (Q14289 whole entry): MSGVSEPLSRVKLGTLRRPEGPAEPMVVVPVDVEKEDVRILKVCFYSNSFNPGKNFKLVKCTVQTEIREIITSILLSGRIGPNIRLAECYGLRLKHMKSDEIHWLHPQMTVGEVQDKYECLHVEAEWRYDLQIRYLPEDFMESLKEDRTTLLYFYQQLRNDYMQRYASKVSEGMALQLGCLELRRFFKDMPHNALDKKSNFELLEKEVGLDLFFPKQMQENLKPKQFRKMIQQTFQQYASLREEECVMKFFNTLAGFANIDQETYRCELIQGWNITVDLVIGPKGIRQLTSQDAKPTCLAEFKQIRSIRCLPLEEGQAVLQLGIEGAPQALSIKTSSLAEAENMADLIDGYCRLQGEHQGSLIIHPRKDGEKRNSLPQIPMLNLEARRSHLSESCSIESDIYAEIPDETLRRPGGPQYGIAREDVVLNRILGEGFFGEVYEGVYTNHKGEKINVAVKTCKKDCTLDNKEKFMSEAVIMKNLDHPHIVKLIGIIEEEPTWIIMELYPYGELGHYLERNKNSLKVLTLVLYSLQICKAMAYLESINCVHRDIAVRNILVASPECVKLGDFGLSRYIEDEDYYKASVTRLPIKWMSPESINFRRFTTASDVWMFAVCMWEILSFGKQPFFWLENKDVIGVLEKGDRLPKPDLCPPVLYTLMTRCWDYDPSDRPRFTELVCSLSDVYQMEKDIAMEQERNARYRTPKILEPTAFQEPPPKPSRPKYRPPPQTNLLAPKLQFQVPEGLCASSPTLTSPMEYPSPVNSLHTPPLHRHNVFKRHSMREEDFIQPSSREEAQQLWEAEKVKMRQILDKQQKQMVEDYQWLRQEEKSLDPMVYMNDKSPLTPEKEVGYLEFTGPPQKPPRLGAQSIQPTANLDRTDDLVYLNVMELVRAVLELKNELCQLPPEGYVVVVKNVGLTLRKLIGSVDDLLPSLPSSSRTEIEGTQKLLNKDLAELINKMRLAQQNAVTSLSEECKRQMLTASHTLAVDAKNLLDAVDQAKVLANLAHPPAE

IC50 [1]: 41.3 nM
IC50 ([2]; HT-29, colon adenocarcinoma, 72 h incubation, Cell Titer-Glo): < 10 nM
IC50 [3, 18]: < 1000 nM
IC50 ([4]; COLO205, colon cancer, 72 h incubation, Cell Titer-Glo): < 100 nM
IC50 [5, 18]: < 1000 nM
IC50 [6, 18]: < 1000 nM
IC50 ([7]; BT-20, breast cancer, 72 h incubation, Cell Titer-Glo): 1000 nM
IC50 ([8]; Prostate cancer, 72 h incubation, Cell Titer-Glo): 100 nM
IC50 [9, 18]: < 1000 nM
IC50 [12, 18]: < 100 nM
IC50 [13, 19]: 6.5e-09 M
inhibition of AXL in panel of 11 kinases ([14]; 0.01 μM): strongly inhibited
inhibition of FAK2 in panel of 11 kinases ([15]; 0.01 μM): strongly inhibited
inhibition of TrkB in panel of 11 kinases ([16]; 0.01 μM): strongly inhibited
inhibition of TrkC in panel of 11 kinases ([17]; 0.01 μM): strongly inhibited
Structure (SMILES): O=C(Nc1cnccn1)C1CCCN1c1nc2c(c(Nc3cc(C4CC4)[nH]n3)n1)CCC2 (single isomer, unassigned) [Compound 6b]
IC50 ([10]; MDA-MB-175, breast cancer, 72 h incubation, Cell Titer-Glo): < 1000 nM
IC50 [11, 18]: < 1000 nM

IC50 ([2]; HT29, colon adenocarcinoma (second entry of the table), 72 h): < 10 nM
IC50 ([2]; HT-29, colon cancer, 72 h): < 10 nM
IC50 ([3]; 72 h): < 10000 nM
IC50 ([4]; COLO-205, colon adenocarcinoma, 72 h): < 10 nM
IC50 ([5]; 72 h): 1000 nM
IC50 ([6]; 72 h): 1000 nM
IC50 ([7]; BT-20, BT20, breast cancer, 72 h): < 10000 nM
IC50 ([8]; prostate cancer, 72 h): < 10000 nM
IC50 ([9]; 72 h): < 10000 nM
IC50 ([12]; 72 h): 1000 nM
Hill Slope N1 ([13]; IGF-1R, ATP 100 μM, run N1): 1.042
IC50 ([13]; IGF-1R, ATP 100 μM, run N1, read-out: IC50 (M) N1): 3.11e-09 M
Hill Slope N2 ([13]; IGF-1R, ATP 100 μM, run N2): 1.307
IC50 ([13]; IGF-1R, ATP 100 μM, run N2, read-out: IC50 (M) N2): 5.49e-09 M
IC50 [13, 19]: 5.1e-09 M
IC50 [14]: 9.76 nM
inhibition at 0.001 µM ([14]; read-out: Average % Inh @ 1 nM): < 39%
inhibition at 0.01 µM [14, 20]: 40 to 59%
IC50 [15]: 2.36 nM
IC50 [16]: 12.2 nM
inhibition at 0.001 µM ([16]; read-out: Average % Inh @ 1 nM): > 60%
inhibition at 0.01 µM [16, 20]: > 60%
IC50 [17]: 3 nM
inhibition at 0.001 µM ([17]; read-out: Average % Inh @ 1 nM): > 60%
inhibition at 0.01 µM [17, 20]: > 60%
Structure (SMILES): CC(C)c1cc(Nc2nc(N3CCCC3C(=O)Nc3ccc(F)nc3)nc3c2CCC3)n[nH]1 (single isomer, unassigned) [Compound 8b]
IC50 ([10]; MDAMB175, breast cancer, 72 h): < 10000 nM
IC50 ([11]; 72 h): 10000 nM
